Our source for the RP-LC retention time values is the METLIN SMRT retention time set (Domingo-Almenara et al. 2019).

The nature of this data set: gradient 5% acetonitrile 3 min, to 50% in 2 min, to 85% in 15 min, held 3 min, 100 µL/min. Conditions: column: Zorbax Extend-C18 2.1 x 50 mm; eluents: water / acetonitrile, 0.1% formic acid. The procedure, abridged: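 Retention times come from adduct peaks that were picked computationally and then checked by hand. The standards, pure and pooled in mixtures of ~100 molecules, were run on a Zorbax Extend-C18 column (2.1 × 50 mm, 1.8 μm) at 100 μL/min with water and acetonitrile, each with 0.1% formic acid. Detection was by quadrupole time-of-flight mass spectrometry in positive and negative ionization mode, with a dead volume of 40 μL and a dwell volume of 900 μL.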
As to `CCN(CC)S(=O)(=O)c1ccc2nc(NCc3ccc4c(c3)OCO4)cnc2c1`, the RP-LC retention time came to 964 s.

Compound `CCN1C(=O)COc2ccc(-c3csc(NC(=O)CCC4CCCCC4)n3)cc21` yielded an RP-LC retention time of 934 s.

`Cc1cccn2c(=O)cc(CN(C)Cc3ccc(Cl)cc3)nc12` displayed an RP-LC retention time of 629 s. As for `O=C(NC1CCCC1)c1ccc2ccnc(N3CCN(c4ccccc4)CC3)c2c1`, the figure is 776 s; as for `CCC(=O)N1CCC2(CC1)CC1C(=O)N(CC)C(=O)N1C2` (stereo not given), 626 s. The compound `O=C(CC1c2ncccc2C(=O)N1c1ccccc1)N1CCN(c2ccccn2)CC1` (stereo not given) came in with an RP-LC retention time of 683 s. As for `CC(C)C(=O)OC[C@H]1O[C@@H](n2ccc(N)nc2=O)[C@](C)(F)[C@@H]1OC(=O)C(C)C`, the RP-LC retention time was 799 s.

`O=C(Cn1nc(S(=O)(=O)c2ccccc2)ccc1=O)Nc1ccc2c(c1)OCO2`: the RP-LC retention time is 796 s.

`O=C(NCC1(c2cccs2)CC1)c1cnccn1` displayed an RP-LC retention time of 736 s. Regarding `CCOc1ccccc1C(=O)N(C)CC1(C)CCOCC1`, the RP-LC retention time worked out at 794 s. Compound `CC(=O)N1CCN(c2nc3c(s2)CC(C(=O)NCc2cc(F)cc(F)c2)CC3)CC1` (stereo not given) showed an RP-LC retention time of 597 s. In the case of `Cc1ccc(NC(=O)C2CCN(S(=O)(=O)c3cn(C(C)C)cn3)CC2)cc1N(C)C`, the RP-LC retention time came out at 597 s. As for `CCc1nc2cc(N3CCC(C(=O)NCc4cccs4)CC3)cnc2nc1CC`, the RP-LC retention time came out at 816 s. As for `CC(=O)c1cccc(NC(=O)Cc2csc3nc(-c4ccccc4)cn23)c1`, the figure is 729 s; as for `COc1ccc(C(C)(C)C)cc1S(=O)(=O)Nc1ccc(-c2cn3ccc(C)nc3n2)cc1`, 758 s; as for `CSc1ccc(Cl)c(C(=O)Nc2ccc3c(N4CCOCC4)ncnc3c2)c1`, 669 s. In turn, `Cc1ccc(CN(Cc2cc(=O)n3cc(Cl)ccc3n2)CC(C)C)cc1` had an RP-LC retention time of 624 s.

`COCCc1nncn1C1CCN(S(=O)(=O)c2cccc(F)c2)CC1` registered an RP-LC retention time of 696 s.

For the compound `Cc1ccccc1-c1nc(C2CC(=O)N(c3ccc(Cl)cc3)C2)no1` (stereo not given), the RP-LC retention time came to 1090 s. The figure for `Cc1cccn2cc(C(=O)NCc3ccc(F)cc3F)nc12` is 733 s. Turning to `Cc1nc(Nc2ccc(F)cn2)sc1C(=O)N1CCN(c2ncccn2)CC1`, the RP-LC retention time is 719 s.

The compound `Cn1ccc2c(cc(C(=O)NCc3ccc4c(c3)OCO4)n2C)c1=O` gave an RP-LC retention time of 660 s. Take `CCC(C)NC(=O)c1cc2c(s1)N(CC1CC1)CCCC2` (stereo not given): the RP-LC retention time is 1090 s.

Take `CCC(C)C(NC(=O)Cc1ccc(OC)c(Cl)c1)C(=O)Nc1nc2ccccc2[nH]1` (stereo not given): the RP-LC retention time worked out at 762 s. With `CCC(=O)N1CCc2cc(N3CC(C(=O)Nc4ccc(OC)cc4C)CC3=O)ccc21` (stereo not given), the RP-LC retention time was 720 s.

With `Cc1nc(C)c(CCNS(=O)(=O)c2cc(Cl)ccc2Cl)s1`, the RP-LC retention time was 683 s.

In the case of `COc1ccc(NC(=O)Cn2c(N)nc(C)cc2=O)cc1F`, the RP-LC retention time came out at 593 s. The compound `CCc1nnc(-c2cc(C)n(CC(=O)Nc3cc(F)cc(F)c3)c2C)o1` gave an RP-LC retention time of 844 s.

`COc1ccccc1N1CCN(Cc2nc(-c3ccc(N4CCC(C)CC4)nc3)no2)CC1` displayed an RP-LC retention time of 882 s. `COc1ccc(S(=O)(=O)N(C)CC2(C)CCOCC2)cc1Cl` came in with an RP-LC retention time of 925 s.

Turning to `CCCc1noc(-c2ccc3nnc(CC(=O)N4CCSCC4)n3c2)n1`, the RP-LC retention time was 755 s. As for `Cc1cc(-c2nc(-c3ccc(F)cc3)no2)c(C)n1CC(=O)N1CCCC(C)C1` (stereo not given), the figure is 1180 s; as for `Cn1ncc2c3ccccc3n(CC(=O)N3CCN(C(=O)c4ccco4)CC3)c2c1=O`, 668 s. The compound `O=C1NCCCCCCN(C(=O)Nc2ccc(F)cc2)[C@H]2CCC[C@@H]12` came in with an RP-LC retention time of 780 s.

In the case of `CC(=O)c1ccc2c(c1)[C@@H]1C=CC[C@@H]1[C@H](c1cc3c(cc1Br)OCO3)N2`, the RP-LC retention time was determined as 1140 s.

The compound `CCc1cccc(NC(=O)N2CCCC2c2nncn2C2CCCC2)c1` (stereo not given) had an RP-LC retention time of 742 s.

In turn, `CCN1CCN(C(=O)C2CCN(S(=O)(=O)c3ccc4c(c3)sc(=O)n4CC)CC2)CC1` registered an RP-LC retention time of 602 s. `CCCc1noc(-c2nnn3c2COC(c2ccc(OC)cc2)C3)n1` (stereo not given) showed an RP-LC retention time of 1010 s. As to `CCc1nc2cc(-c3noc(/C=C/c4ccc(C)o4)n3)ccc2o1`, the RP-LC retention time was 1180 s.

Compound `Cn1nc(C(=O)Nc2ccccc2F)cc1C(F)(F)F` came in with an RP-LC retention time of 951 s. The figure for `CCn1ccc(C(=O)N2CC(Oc3ccc(-c4nc(-c5ccccc5)no4)cc3)C2)n1` is 1130 s; for `CC(C)N1CCN(c2ncc(C(=O)Nc3ccccc3)c(N)n2)CC1` it is 591 s; for `CC(C)NC(=O)CCn1c(=O)c2cc(Cl)ccc2n2c(=O)n(Cc3ccccc3)nc12` it is 856 s. In the case of `Cc1cc(C)cc(-c2nnc(Cc3nc(-c4cccc(Br)c4)no3)o2)c1`, the RP-LC retention time is 1240 s. For the compound `COc1ccc(S(=O)(=O)N2CCC(C(=O)N[C@@H](C)C(=O)O)CC2)cc1`, the RP-LC retention time was determined as 652 s. In the case of `Cc1nc2nc(-c3ccccc3)nn2c(C)c1CC(=O)N1CCC(C)CC1`, the RP-LC retention time worked out at 846 s. `CC(C)CC(=O)N1CCC(Oc2nccnc2N(C)C)C1` (stereo not given): the RP-LC retention time turned out to be 691 s. On to `CCc1noc(NC(C)=O)c1-c1ccc(C)c(S(=O)(=O)N2CCCC2)c1`, for which the RP-LC retention time came out at 801 s. As to `CCn1ccc2sc(C)c(C(=O)NCc3ccc4c(c3)OCO4)c2c1=O`, the RP-LC retention time stood at 769 s. The figure for `CC(C)Cn1cc(CCNC(=O)Nc2c(F)cccc2F)c2cccnc21` is 755 s; for `N#CCCN(C(=O)c1noc2c1CCCC2)c1ccccc1` it is 827 s. Regarding `CC(C)CC(=O)Nc1ccc(OCc2cc(C(=O)NC(C)C)no2)cc1`, the RP-LC retention time was found to be 816 s.

For `CCCOC(=O)Cn1c(=O)oc2cc(S(=O)(=O)N3CCN(c4ccccn4)CC3)ccc21`, the RP-LC retention time stood at 703 s. As to `O=C(NCc1ccc2c(c1)OCO2)C1CCCN(c2nn3c(=O)c4c(nc3s2)CCCC4)C1` (stereo not given), the RP-LC retention time was determined as 719 s. Regarding `COc1ccccc1NC(=O)NC(C)(C)CC(C)(C)C`, the RP-LC retention time was 1010 s. Turning to `CCOc1ccc(CNC(=O)c2nnn(Cc3nc(-c4cccc(C)c4)oc3C)c2C)cc1`, the RP-LC retention time turned out to be 1140 s. In turn, `O=C(NCc1cc(F)cc(F)c1)c1cn(-c2ccc(NC(=O)C3CC3)cn2)cn1` registered an RP-LC retention time of 763 s. Consider `COC(=O)c1cc(S(=O)(=O)N2CCCC2C(=O)Nc2ccc(C)cc2C)cn1C` (stereo not given), for which the RP-LC retention time came to 915 s. In the case of `O=C(Nc1c(-c2ccccc2)nc2ccccn12)c1ccccc1F`, the RP-LC retention time was determined as 638 s.

For the compound `O=C(NCCc1ccccc1)c1cc2sccc2n1Cc1ccc(F)cc1`, the RP-LC retention time was 1140 s. Turning to `O=C(NC1CC1)C1CCCN(c2cnc3nccnc3c2)C1` (stereo not given), the RP-LC retention time worked out at 592 s. `O=S(=O)(NCCOc1ccc2c(c1)OCO2)c1ccc(F)c(Cl)c1` displayed an RP-LC retention time of 903 s.

On to `c1ccc(C(O[C@@H]2CCCN(CCc3ccc4c(c3)OCO4)C2)c2ccccc2)cc1`, for which the RP-LC retention time is 961 s. As for `Cn1c(C(=O)NC2CCCCCC2)cc2sc(Cl)cc21`, the figure is 1200 s; as for `CCOCCOC(=O)c1ccc(NC(=O)C(C)(C)C)cc1`, 815 s; as for `O=C(c1ccc(Br)cc1)N1CCN=C1N1CCN(c2ccccc2F)CC1`, 632 s.

`O=C(NCc1csc(C2CCN(C(=O)COc3ccccc3)CC2)n1)C1CC1` displayed an RP-LC retention time of 701 s. Compound `COc1ccc(CNC(=O)COc2ccc(NC(=O)C3CC3)cn2)cc1OC` yielded an RP-LC retention time of 666 s. Consider `COc1ccc(OC)c(S(=O)(=O)N2CCCC(C(=O)NCC(C)C)C2)c1` (stereo not given), for which the RP-LC retention time was found to be 796 s. Regarding `Cc1cccc(CN2CCCn3nc(C(=O)NCCCN4CCOCC4)cc3C2=O)c1`, the RP-LC retention time was 567 s. Compound `Cc1ccc(NC(=O)c2sc(C)nc2C)c(Cl)c1` registered an RP-LC retention time of 907 s. Compound `Cc1ccc(-n2nc(N3CCCC(C(=O)NC4CCCCCCC4)C3)ccc2=O)cc1Cl` (stereo not given) yielded an RP-LC retention time of 1110 s.

Compound `COc1cccc2c1cc1c(=O)n(CC(=O)N3CCN(c4ccccn4)CC3)nc(C)n12` displayed an RP-LC retention time of 591 s. In the case of `CCNC(=O)NCC1CCN(C(=O)NC(C)(C)C)CC1`, the RP-LC retention time is 597 s.

Turning to `Cc1noc(C2CN(C(=O)COc3ccc(Cl)cc3)CC23CCOCC3)n1` (stereo not given), the RP-LC retention time is 768 s. As for `COc1ccc(OCc2noc(CNC(=O)c3cnn(-c4ccccc4)c3C)n2)cc1`, the figure is 799 s; as for `Cc1sc(-c2noc(C3CCC3)n2)cc1S(=O)(=O)N1CCC(C(=O)N2CCCCC2)CC1`, 1050 s. In turn, `O=C(CCc1c[nH]c2ccccc12)N1CCOc2ccc(N3CCOCC3)cc2C1` came in with an RP-LC retention time of 770 s.

Compound `Cc1nc2cccnc2n1C1CCN(C(=O)Nc2ccc3c(c2)OCCO3)CC1` returned an RP-LC retention time of 612 s. The figure for `O=C(NCC1CCN(Cc2ccco2)CC1)C(=O)Nc1ccc(F)c(Cl)c1` is 584 s.
